The record followed here is ChEMBL document CHEMBL1201862, “PubChem BioAssay data set” (2004).

For test [1], the target named is T1, Tyrosine-protein phosphatase non-receptor type 7 (Homo sapiens, UniProt P35236).
T1 sequence (P35236 whole entry): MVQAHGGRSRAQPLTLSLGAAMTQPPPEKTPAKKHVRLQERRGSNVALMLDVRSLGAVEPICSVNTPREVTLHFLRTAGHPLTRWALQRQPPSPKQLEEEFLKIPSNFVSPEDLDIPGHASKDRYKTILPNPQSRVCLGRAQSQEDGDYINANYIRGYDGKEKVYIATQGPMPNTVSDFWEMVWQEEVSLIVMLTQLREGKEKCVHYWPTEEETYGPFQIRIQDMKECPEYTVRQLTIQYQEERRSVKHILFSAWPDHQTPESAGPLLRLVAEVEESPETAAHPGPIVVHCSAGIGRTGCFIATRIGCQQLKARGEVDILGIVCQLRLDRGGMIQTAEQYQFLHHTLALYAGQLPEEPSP
The test is classed as functional.

Test [2] deals with Dual specificity protein phosphatase 3 (Homo sapiens, UniProt P51452). Description: VHR1 phosphatase inhibitors, biochemical (AID 1878).
Test [3] is described as follows: loss of viability in HepG2 cells – cell-based, CellTiter-Glo, cherry-picked, cytotoxicity control for Shn3 inhibitor project, dose response (AID 624134). It is filed as functional. In general terms: ATP-based viability assays read luminescence as a measure of living cells.
A short description of test [4]: A549 cell cytotoxicity, dose response, cytotoxicity control, plate reader, cherry-pick, antagonist series (AID 743412). It is filed as functional, cell-based.
The nature of test [5]: blockers of bursicon-stimulated LGR2 cAMP reporter – cell-based, HEK293, CRE-luciferase reporter, cherry pick, set 2, dose response (AID 743343).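 Also: transfected cells were stimulated with diluted bursicon conditioned medium after compound addition.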 It is filed as functional. For orientation: A reporter such as luciferase makes a cellular process visible.
For test [6], the target named is Caspase-8 (Homo sapiens, UniProt Q14790). The experiment in a line: inhibitors of purified CASP8 protease – biochemical, Z-IETD-R110 fluorescence, cherry-picked samples, selectivity assay for caspase-6 inhibitor project, dose response (AID 743294).
Test [7] concerns the target T2, Protein kinase C zeta type (Homo sapiens, UniProt Q05513).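 Also: measured as one member of a broad kinase profiling panel.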
T2 sequence (Q05513 whole entry): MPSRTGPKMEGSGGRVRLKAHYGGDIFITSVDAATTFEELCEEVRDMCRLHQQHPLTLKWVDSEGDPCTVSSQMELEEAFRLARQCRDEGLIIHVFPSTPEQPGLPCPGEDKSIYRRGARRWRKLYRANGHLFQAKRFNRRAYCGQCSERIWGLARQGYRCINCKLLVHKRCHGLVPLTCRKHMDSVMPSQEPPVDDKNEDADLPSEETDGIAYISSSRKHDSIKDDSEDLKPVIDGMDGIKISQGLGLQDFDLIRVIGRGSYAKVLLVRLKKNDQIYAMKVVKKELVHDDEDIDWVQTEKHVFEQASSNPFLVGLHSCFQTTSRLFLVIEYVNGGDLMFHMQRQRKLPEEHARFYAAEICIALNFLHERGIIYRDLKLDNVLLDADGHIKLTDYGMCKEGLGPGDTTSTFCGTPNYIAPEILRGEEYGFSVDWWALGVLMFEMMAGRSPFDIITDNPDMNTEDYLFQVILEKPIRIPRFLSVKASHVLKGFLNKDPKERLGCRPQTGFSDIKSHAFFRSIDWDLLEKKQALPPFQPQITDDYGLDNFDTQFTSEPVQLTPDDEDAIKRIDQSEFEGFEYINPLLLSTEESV
The test is classed as functional.

In test [8] the target is 5'-AMP-activated protein kinase catalytic subunit alpha-1 (Homo sapiens, UniProt Q13131). The test is classed as functional.
The target in test [9] is Serine/threonine-protein kinase PLK4 (Homo sapiens, UniProt O00444). The test is classed as functional.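 Also: PLK4 measured as one member of a kinome-wide kinase profiling panel.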
The target of test [10] is Serine/threonine-protein kinase D2 (Homo sapiens, UniProt Q9BZL6). It is filed as functional.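 Also: measured against PRKD2 as one member of a kinome-wide kinase profiling panel.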
Test [11] addresses Mitogen-activated protein kinase 8 (Homo sapiens, UniProt P45983). It is filed as functional.
Test [12] has as its target Serine/threonine-protein kinase pim-1 (Homo sapiens, UniProt P11309). The test is classed as functional.
Test [13] has as its target Mast/stem cell growth factor receptor Kit (Homo sapiens, UniProt P10721). It is filed as functional.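 Also: KIT entry within a kinase panel assay.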
Test [14] addresses Fibroblast growth factor receptor 1 (Homo sapiens, UniProt P11362). The test is classed as functional.
The target in test [15] is Tyrosine-protein kinase ITK/TSK (Homo sapiens, UniProt Q08881). The test is classed as functional.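 Also: affinity for ITK measured as one member of a broad kinase panel profiling binding across the kinome.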
For test [16], the target named is Serine/threonine-protein kinase TAO1 (Homo sapiens, UniProt Q7L7X3). The test is classed as functional.
Test [17] concerns the target High affinity nerve growth factor receptor (Homo sapiens, UniProt P04629). The test is classed as functional.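 Also: NTRK1 tested as one member of a kinome-wide profiling panel.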
The target of test [18] is Receptor-type tyrosine-protein kinase FLT3 (Homo sapiens, UniProt P36888). It is filed as functional.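 Also: FLT3 was tested as one member of a kinome-wide kinase panel.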
The target of test [19] is Mitogen-activated protein kinase 1 (Homo sapiens, UniProt P28482). It is filed as functional.
The target of test [20] is Interleukin-1 receptor-associated kinase 4 (Homo sapiens, UniProt Q9NWZ3). It is filed as functional.
Test [21] addresses Serine/threonine-protein kinase PLK1 (Homo sapiens, UniProt P53350). It is filed as functional.
For test [22], the target named is Dual specificity protein kinase CLK4 (Homo sapiens, UniProt Q9HAZ1). It is filed as functional.
The target of test [23] is Serine/threonine-protein kinase MRCK alpha (Homo sapiens, UniProt Q5VT25). The test is classed as functional.
The target in test [24] is Inhibitor of nuclear factor kappa-B kinase subunit beta (Homo sapiens, UniProt O14920). The test is classed as functional.

The source made the active and inactive calls.

Sequence of Interleukin-1 receptor-associated kinase 4 (Q9NWZ3 whole entry): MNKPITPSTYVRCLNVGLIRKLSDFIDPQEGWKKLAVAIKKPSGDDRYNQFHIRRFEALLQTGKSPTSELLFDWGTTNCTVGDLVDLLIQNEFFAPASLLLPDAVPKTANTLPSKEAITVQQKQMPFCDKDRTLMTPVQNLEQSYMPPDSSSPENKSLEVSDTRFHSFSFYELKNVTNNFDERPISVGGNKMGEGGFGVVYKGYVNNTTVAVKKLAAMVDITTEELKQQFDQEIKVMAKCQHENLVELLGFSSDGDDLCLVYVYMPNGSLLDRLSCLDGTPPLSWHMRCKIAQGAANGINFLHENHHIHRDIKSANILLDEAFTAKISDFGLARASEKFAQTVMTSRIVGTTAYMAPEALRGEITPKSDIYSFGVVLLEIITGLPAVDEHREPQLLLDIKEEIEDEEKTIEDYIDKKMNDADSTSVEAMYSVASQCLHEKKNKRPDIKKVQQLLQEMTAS
Sequence of Mitogen-activated protein kinase 8 (P45983 whole entry): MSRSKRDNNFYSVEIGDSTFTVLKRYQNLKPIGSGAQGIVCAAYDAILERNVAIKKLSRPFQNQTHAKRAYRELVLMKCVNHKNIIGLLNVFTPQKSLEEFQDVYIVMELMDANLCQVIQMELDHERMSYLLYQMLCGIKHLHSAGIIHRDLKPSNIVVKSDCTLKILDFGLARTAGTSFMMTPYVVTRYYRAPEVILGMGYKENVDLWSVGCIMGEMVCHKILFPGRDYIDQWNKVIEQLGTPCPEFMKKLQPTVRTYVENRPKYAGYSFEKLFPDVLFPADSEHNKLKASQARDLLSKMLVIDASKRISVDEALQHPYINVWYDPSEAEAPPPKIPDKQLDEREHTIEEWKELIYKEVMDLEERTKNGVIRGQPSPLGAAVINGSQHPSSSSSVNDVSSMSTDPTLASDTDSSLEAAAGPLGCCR
Sequence of Dual specificity protein phosphatase 3 (P51452 whole entry): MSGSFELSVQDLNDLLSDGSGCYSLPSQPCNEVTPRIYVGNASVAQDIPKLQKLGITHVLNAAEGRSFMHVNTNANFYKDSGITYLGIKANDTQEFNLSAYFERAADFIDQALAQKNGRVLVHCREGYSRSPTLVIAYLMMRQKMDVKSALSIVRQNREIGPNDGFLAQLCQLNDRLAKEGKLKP
Sequence of High affinity nerve growth factor receptor (P04629 whole entry): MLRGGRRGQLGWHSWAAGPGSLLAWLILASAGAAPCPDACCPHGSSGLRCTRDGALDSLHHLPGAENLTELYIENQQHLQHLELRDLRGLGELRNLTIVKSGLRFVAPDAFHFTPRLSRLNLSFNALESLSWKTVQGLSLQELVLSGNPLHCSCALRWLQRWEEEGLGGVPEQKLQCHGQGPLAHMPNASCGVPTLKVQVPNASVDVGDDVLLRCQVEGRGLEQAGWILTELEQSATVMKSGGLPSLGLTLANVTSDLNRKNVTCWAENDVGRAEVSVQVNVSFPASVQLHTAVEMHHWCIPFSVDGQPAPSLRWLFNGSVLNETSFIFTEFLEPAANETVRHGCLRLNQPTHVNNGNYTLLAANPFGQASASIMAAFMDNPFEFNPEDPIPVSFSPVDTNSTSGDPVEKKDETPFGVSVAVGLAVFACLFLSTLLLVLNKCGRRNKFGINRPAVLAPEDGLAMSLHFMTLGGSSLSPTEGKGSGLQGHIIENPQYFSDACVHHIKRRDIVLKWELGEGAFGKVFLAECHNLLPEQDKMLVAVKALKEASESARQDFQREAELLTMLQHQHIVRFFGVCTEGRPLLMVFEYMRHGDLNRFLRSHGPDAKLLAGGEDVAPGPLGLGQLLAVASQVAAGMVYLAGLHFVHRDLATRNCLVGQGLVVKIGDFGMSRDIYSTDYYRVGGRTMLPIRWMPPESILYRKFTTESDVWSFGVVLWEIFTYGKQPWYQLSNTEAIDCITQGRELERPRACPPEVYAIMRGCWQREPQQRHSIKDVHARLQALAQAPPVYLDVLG
Sequence of Mitogen-activated protein kinase 1 (P28482 whole entry): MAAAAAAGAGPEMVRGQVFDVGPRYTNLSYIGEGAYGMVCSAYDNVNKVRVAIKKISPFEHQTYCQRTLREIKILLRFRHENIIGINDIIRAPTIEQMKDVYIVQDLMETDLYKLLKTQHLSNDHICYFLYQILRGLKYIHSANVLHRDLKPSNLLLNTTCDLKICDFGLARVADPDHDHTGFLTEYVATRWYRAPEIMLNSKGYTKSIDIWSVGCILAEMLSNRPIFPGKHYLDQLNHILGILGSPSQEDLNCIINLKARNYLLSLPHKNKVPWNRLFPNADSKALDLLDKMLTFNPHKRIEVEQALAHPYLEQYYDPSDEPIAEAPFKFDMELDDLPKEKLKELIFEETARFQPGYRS
Sequence of Dual specificity protein kinase CLK4 (Q9HAZ1 whole entry): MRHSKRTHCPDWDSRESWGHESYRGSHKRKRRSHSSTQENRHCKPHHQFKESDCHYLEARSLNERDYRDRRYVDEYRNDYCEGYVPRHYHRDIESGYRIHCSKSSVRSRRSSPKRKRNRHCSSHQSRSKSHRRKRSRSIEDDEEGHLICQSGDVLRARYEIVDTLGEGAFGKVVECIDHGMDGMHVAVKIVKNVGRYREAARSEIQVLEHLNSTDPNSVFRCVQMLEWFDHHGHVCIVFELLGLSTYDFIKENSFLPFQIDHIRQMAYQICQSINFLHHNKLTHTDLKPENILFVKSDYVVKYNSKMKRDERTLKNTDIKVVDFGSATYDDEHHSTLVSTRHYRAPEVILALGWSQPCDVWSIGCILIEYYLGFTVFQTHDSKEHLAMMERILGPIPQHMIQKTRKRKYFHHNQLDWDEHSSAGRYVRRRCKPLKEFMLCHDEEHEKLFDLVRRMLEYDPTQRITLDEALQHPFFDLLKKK
Sequence of 5'-AMP-activated protein kinase catalytic subunit alpha-1 (Q13131 whole entry): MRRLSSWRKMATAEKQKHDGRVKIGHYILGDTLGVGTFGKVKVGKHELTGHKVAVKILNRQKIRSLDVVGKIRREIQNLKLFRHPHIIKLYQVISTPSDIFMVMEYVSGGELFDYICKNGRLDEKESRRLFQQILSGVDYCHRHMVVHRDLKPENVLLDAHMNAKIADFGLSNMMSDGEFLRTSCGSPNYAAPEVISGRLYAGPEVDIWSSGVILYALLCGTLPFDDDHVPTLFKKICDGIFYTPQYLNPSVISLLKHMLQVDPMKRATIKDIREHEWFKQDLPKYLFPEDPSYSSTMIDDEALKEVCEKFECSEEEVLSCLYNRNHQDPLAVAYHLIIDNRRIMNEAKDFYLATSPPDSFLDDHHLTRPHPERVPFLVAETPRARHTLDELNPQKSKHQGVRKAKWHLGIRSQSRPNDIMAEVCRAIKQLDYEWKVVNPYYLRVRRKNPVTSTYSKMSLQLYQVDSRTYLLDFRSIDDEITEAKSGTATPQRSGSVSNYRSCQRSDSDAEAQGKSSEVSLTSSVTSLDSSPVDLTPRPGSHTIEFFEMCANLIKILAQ
Sequence of Caspase-8 (Q14790 217-374 limits assumed): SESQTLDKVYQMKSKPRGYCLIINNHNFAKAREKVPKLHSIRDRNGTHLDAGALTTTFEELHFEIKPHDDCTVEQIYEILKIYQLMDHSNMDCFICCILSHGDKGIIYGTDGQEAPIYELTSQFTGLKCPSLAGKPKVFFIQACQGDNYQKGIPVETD
Sequence of Caspase-8 (Q14790 385-479 limits assumed): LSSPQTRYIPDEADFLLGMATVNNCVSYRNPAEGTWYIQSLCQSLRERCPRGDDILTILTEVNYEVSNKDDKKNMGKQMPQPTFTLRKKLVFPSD
Sequence of Mast/stem cell growth factor receptor Kit (P10721 whole entry): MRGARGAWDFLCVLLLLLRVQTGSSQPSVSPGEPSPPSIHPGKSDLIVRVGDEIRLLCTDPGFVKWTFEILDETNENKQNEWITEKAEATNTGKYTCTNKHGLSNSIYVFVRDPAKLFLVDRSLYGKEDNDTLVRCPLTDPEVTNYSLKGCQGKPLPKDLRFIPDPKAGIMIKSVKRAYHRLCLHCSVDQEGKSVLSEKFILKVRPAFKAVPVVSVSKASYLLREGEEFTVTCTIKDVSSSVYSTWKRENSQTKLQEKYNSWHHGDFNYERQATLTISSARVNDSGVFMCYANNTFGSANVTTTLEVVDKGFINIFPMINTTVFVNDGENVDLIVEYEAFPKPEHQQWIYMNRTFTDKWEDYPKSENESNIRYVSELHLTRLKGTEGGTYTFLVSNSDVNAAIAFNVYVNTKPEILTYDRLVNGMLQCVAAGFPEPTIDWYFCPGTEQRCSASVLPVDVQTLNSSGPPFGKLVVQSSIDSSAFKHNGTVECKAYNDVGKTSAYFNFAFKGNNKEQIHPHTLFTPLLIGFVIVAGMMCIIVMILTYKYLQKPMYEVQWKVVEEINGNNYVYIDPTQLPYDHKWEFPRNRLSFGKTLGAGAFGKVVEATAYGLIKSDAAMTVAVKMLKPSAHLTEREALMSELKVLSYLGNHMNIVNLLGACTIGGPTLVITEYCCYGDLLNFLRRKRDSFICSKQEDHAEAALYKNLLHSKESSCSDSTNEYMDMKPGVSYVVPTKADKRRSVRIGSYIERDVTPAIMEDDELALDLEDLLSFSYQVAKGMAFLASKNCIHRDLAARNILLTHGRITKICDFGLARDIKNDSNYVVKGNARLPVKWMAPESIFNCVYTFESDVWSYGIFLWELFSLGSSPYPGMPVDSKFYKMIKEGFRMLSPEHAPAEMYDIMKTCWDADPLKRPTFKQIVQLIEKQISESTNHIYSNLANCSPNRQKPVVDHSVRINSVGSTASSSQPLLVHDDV
Sequence of Serine/threonine-protein kinase pim-1 (P11309 whole entry): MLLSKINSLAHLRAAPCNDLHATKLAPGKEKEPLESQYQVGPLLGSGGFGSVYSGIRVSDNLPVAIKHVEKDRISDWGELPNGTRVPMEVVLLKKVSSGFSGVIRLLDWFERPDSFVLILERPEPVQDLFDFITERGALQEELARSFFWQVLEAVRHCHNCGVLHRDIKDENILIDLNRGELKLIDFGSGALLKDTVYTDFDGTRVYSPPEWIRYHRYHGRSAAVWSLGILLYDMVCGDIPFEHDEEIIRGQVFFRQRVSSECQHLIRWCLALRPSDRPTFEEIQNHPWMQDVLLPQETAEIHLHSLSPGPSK

Regarding `CCCc1nc2c(=O)n(C)c(=O)nc-2n(C)n1`, the IC50 – broadly, the point on the concentration scale where inhibition reaches its midpoint – was < 1.24 µM (active) in test [1] and 5.55 µM (active) in test [2]. Also, the AC50 (as a rule, the midpoint of the concentration-response curve, whichever way the signal moves) in [3] was 4.96 µM (active); in test [4] it was 6.05 µM (active); in test [5] it was 5.47 µM (active); in test [6] it was 0.31 µM (active).
As for `COc1cc2ncn(-c3cc(OCc4ccccc4C(F)(F)F)c(C(N)=O)s3)c2cc1OC` [GW843682X], the Ki (in general, a measure of affinity in units of concentration, obtained from inhibition or displacement) in [7] is > 7.94 µM (inactive); in [8], > 5.01 µM (inactive); in test [9], 0.2 µM (active); in [10], > 10 µM (inactive); in [11], > 3.16 µM (inactive); in [12], > 10 µM (inactive). Also, the inhibitory constant (Ki) in test [13] was 0.126 µM (active); in test [14] it was 3.98 µM (active); in test [15], 1 µM (active); in [16], > 10 µM (inactive); in [17], 0.398 µM (active); in test [18], 0.0501 µM (active). The Ki in test [19] was > 7.94 µM (inactive); in test [20] it was > 10 µM (inactive); in test [21], 0.0126 µM (active); in [22] it was 0.398 µM (active); in test [23], > 10 µM (inactive); in [24], > 3.16 µM (inactive).
